Laboratory results reported in patent publication US9289430B2, “Compounds and methods for inhibiting phosphate transport” (Ardelyx, Inc., priority 2010, dated 2016).

molecular target: T1, rat NaP2b (SLC34A2) (Rattus norvegicus, UniProt Q9JJ09); assay: NaP2b-mediated Pi transport: 33P phosphate uptake into transfected HEK293 cells; format: cell-based; conditions: 100 uM KH2PO4, PiT-silencing agent, read-out: pIC50 range for rat Nap2b (converted)
T1 construct: host or cells: HEK293
T1 sequence (Q9JJ09 1-695): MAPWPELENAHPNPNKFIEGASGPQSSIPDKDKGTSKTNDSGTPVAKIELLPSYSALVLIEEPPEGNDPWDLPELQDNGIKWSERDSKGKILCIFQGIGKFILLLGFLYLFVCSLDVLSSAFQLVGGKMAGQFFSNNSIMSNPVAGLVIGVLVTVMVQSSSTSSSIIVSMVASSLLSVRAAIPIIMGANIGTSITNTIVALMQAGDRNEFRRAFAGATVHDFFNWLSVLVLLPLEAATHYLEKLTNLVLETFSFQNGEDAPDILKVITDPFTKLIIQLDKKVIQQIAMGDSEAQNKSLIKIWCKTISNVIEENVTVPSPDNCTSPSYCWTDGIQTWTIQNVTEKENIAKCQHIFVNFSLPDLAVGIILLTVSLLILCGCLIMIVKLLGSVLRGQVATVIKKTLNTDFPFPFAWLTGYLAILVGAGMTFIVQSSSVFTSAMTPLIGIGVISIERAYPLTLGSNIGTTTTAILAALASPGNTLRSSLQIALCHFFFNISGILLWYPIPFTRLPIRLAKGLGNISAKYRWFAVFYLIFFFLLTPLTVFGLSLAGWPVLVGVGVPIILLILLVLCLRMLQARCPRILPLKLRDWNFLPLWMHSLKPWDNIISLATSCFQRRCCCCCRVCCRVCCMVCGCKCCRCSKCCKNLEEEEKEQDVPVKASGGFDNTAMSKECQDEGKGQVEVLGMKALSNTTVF
Method: Materials. HEK293 cells were obtained from the American Type Culture collection and propagated per their instructions. Expression clones for rat and human NaP2b (SLC34A2) were obtained from Open Biosystems (Catalog numbers MRN1768-9510282, and MHS1010-99823026, respectively). The sequence of the human protein was mutated to insert a threonine after residue 37, and to introduce a N39D mutation.
Inhibition of Pi Transport. The rate of phosphate (Pi) uptake into HEK293 cells was measured using a modification of the method described by Mohrmann et al. (Mohrmann, I., Mohrmann, M., Biber, J., and Murer, H. (1986) Am. J. Phys. 250(3 Pt 1):G323-30.) Transfected HEK293 cells were treated with a pharmacological agent to minimize endogenous PiT-mediated phosphate transport activity, such that the only remaining sodium-dependent phosphate transport activity is that which was bestowed by introduction of the NaP2b genes.
Cells were seeded into 96-well plates at 25,000 cells/well and cultured overnight. Lipofectamine 2000 (Invitrogen) was used to introduce the NaP2b cDNA, and the cells were allowed to approach confluence during a second overnight incubation. […] Cells were then overlayed with either choline uptake buffer or sodium uptake buffer (14 mM Tris, 137 mM sodium chloride, 5.4 mM KCl, 2.8 mM CaCl2, 1.2 mM MgSO4, 100 uM KH2PO4, PiT-silencing agent, 1 mg/mL Bovine Serum Albumin, pH 7.4) containing 6-9 uCi/mL ^33P orthophosphoric acid (Perkin Elmer) and test compound. Each compound was tested at twelve concentrations ranging from 0.1 nM to 30 uM. Assays were run in duplicate.
After incubation for 3-30 minutes at room temperature, assay mixtures were removed, and the cells were washed twice with ice cold stop solution (137 mM sodium chloride, 14 mM Tris, pH 7.4). Cells were lysed by addition of 20 μL 0.1% Tween 80 followed by 100 μL scintillation fluid, and counted using a TopCount (Perkin Elmer).
pIC50 (the negative log of the IC50) values of the test compounds were calculated using GraphPad Prism.

SMILES	IC50
CN(CCN1CCOCC1)C(=O)c1cccc(C(=O)Nc2ccc(N3CCCCC3)cc2C(=O)Nc2nc(-c3cccc(C(F)(F)F)c3)cs2)c1 [Example 3, N1-Methyl-N1-(2-morpholinoethyl)-N3-(4-(piperidin-1-yl)-2-((4-(3-(trifluoromethyl)phenyl)thiazol-2-yl)carbamoyl)phenyl)isophthalamide]	< 1 µM
CN(CCN1CCOCC1)C(=O)c1cccc(C(=O)Nc2ccc(N3CCCCC3)cc2C(=O)Nc2ncn(-c3cccc(C(F)(F)F)c3)n2)c1 [Example 2, N1-Methyl-N1-(2-morpholinoethyl)-N3-(4-(piperidin-1-yl)-2-((1-(3-(trifluoromethyl)phenyl)-1H-1,2,4-triazol-3-yl)carbamoyl)phenyl)isophthalamide]	1 to 7.94 µM
Cc1ccc(-n2ccc(NC(=O)c3cc(Cl)ccc3NC(=O)c3cccc(CSCCC(=O)O)c3)n2)cc1C [Example 4, 3-((3-((4-Chloro-2-((1-(3,4-dimethylphenyl)-1H-pyrazol-3-yl)carbamoyl)phenyl)carbamoyl)benzyl)thio)propanoic acid]	1 to 7.94 µM
Cc1ccc(-n2ccc(NC(=O)c3cc(N4CCCCC4)ccc3NC(=O)c3cccc(CSCCC(=O)O)c3)n2)cc1C [Example 5, 3-((3-((2-((1-(3,4-Dimethylphenyl)-1H-pyrazol-3-yl)carbamoyl)-4-(piperidin-1-yl)phenyl)carbamoyl)benzyl)thio)propanoic acid]	1 to 7.94 µM

The next lines start with the values.

IC50	SMILES
10 to 31.6 µM	CCN(CC)CCN(C)Cc1cccc(C(=O)Nc2ccc(N3CCCCC3)cc2C(=O)Nc2ccn(-c3cccc(C(F)(F)F)c3)n2)c1 [Example 12, 2-(3-(((2-(Diethylamino)ethyl)(methyl)amino)methyl)benzamido)-5-(piperidin-1-yl)-N-(1-(3-(trifluoromethyl)phenyl)-1H-pyrazol-3-yl)benzamide]
10 to 31.6 µM	CCN(CC)CCN(C)Cc1ccc(C(=O)Nc2ccc(N3CCCCC3)cc2C(=O)Nc2ccn(-c3cccc(C(F)(F)F)c3)n2)cc1 [Example 9, 2-(4-(((2-(diethylamino)ethyl)(methyl)amino)methyl)benzamido)-5-(piperidin-1-yl)-N-(1-(3-(trifluoromethyl)phenyl)-1H-pyrazol-3-yl)benzamide]
1 to 7.94 µM	O=C(NCCOCCO)c1cccc(C(=O)Nc2ccc(N3CCCCC3)cc2C(=O)Nc2cn(-c3cccc(C(F)(F)F)c3)cn2)c1 [Example 10, N1-(2-(2-Hydroxyethoxyl)ethyl)-N3-(4-(piperidin-1-yl)-2-((1-(3-(trifluoromethyl)phenyl)-1H-imidazol-4-yl)carbamoyl)phenyl)isophthalamide]
1 to 7.94 µM	O=C(O)c1ccc(SCc2cccc(C(=O)Nc3ccc(N4CCCCC4)cc3C(=O)Nc3ccn(-c4cccc(C(F)(F)F)c4)n3)c2)cc1 [Example 21, 4-((3-((4-(piperidin-1-yl)-2-((1-(3-(trifluoromethyl)phenyl)-1H-pyrazol-3-yl)carbamoyl)phenyl)carbamoyl)benzyl)thio)benzoic acid]
1 to 7.94 µM	COCCNC(=O)CCN(C)Cc1cccc(C(=O)Nc2ccc(N3CCCCC3)cc2C(=O)Nc2ccn(-c3cccc(C(F)(F)F)c3)n2)c1 [Example 16, 2-(3-(((3-((2-methoxyethyl)amino)-3-oxopropyl)(methyl)amino)methyl)-benzamido)-5-(piperidin-1-yl)-N-(1-(3-(trifluoromethyl)phenyl)-1H-pyrazol-3-yl)-benzamide]
1 to 7.94 µM	O=C(O)CCSCc1cccc(C(=O)Nc2ccc(Cl)cc2C(=O)Nc2ccn(-c3cccc(C(F)(F)F)c3)n2)c1 [Example 6, 3-((3-((4-Chloro-2-((1-(3-(trifluoromethyl)phenyl)-1H-pyrazol-3-yl)carbamoyl)phenyl)carbamoyl)benzyl)thio)propanoic acid]
< 1 µM	O=C(O)Cc1cccc(SCc2cccc(C(=O)Nc3ccc(Cl)cc3C(=O)Nc3ccn(-c4cccc(C(F)(F)F)c4)n3)c2)c1 [Example 24, 2-(3-((3-((4-chloro-2-((1-(3-(trifluoromethyl)phenyl)-1H-pyrazol-3-yl)-carbamoyl)phenyl)carbamoyl)benzyl)thio)phenyl)acetic acid]
1 to 7.94 µM	CN(CCOCCOCCOCCC(=O)O)Cc1cccc(C(=O)Nc2ccc(N3CCCCC3)cc2C(=O)Nc2ccn(-c3cccc(C(F)(F)F)c3)n2)n1 [Example 8, 2-methyl-1-(6-((4-(piperidin-1-yl)-2-((1-(3-(trifluoromethyl)phenyl)-1H-pyrazol-3-yl)carbamoyl)phenyl)carbamoyl)pyridin-2-yl)-5,8,11-trioxa-2-azatetradecan-14-oic acid]
1 to 7.94 µM	O=C(NCCOCCO)c1cccc(C(=O)Nc2ccc(N3CCCCC3)cc2C(=O)Nc2ccn(-c3cccc(C(F)(F)F)c3)n2)c1 [Example 13, N1-(2-(2-Hydroxyethoxyl)ethyl)-N3-(4-(piperidin-1-yl)-2-((1-(3-(trifluoromethyl)phenyl)-1H-pyrazol-3-yl)carbamoyl)phenyl)isophthalamide]

test system: not given; assay: not given; conditions: human absorption data, from Ertl et al., J. Med. Chem. 2000; cited from earlier work

SMILES	% FA
OC[C@@H](O)[C@@H](O)[C@H](O)[C@H](O)CO [mannitol]	26%
OC[C@H]1O[C@H](OC[C@H]2O[C@H](O[C@]3(CO)O[C@H](CO)[C@@H](O)[C@@H]3O)[C@H](O)[C@@H](O)[C@@H]2O)[C@H](O)[C@@H](O)[C@H]1O [raffinose]	0.3%
NC[C@H]1CC[C@H](C(=O)O)CC1 [tranexamic acid]	55%
CC(=O)Nc1ccc(OCC(O)CNC(C)C)cc1 (centres unmarked) [practolol]	95%
C=CCOc1ccccc1OCC(O)CNC(C)C (centres unmarked) [oxprenolol]	97%
O=C(O)c1cc(/N=N/c2ccc(O)c(C(=O)O)c2)ccc1O [olsalazine]	2.3%
C=CCc1ccccc1OCC(O)CNC(C)C (centres unmarked) [alprenolol]	96%
Cc1ccccc1N1C(=O)c2cc(S(N)(=O)=O)c(Cl)cc2NC1C (centres unmarked) [metolazone]	64%
OC[C@H]1O[C@@H](O[C@@H]2[C@@H](CO)OC(O)(CO)[C@H]2O)[C@H](O)[C@@H](O)[C@H]1O (mixture of isomers) [lactulose]	0.6%
CCN1CCCC1CNC(=O)c1cc(S(N)(=O)=O)ccc1OC (centres unmarked) [sulpiride]	36%
O=C(O)P(=O)(O)O [foscarnet]	17%
O=C(O)c1cc(/N=N/c2ccc(S(=O)(=O)Nc3ccccn3)cc2)ccc1O [sulfasalazine]	12%
CC(C)NCC(O)COc1cccc2[nH]ccc12 (centres unmarked) [pindolol]	92%
